# Results published in ChEMBL document CHEMBL1145668, “The Effect of Ultraviolet Light on the Toxicity of Natural Products Toward the Eggs of Drosophila melanogaster” (J Nat Prod, 1983).
# The source made the active and inactive calls. The calls are words filed in the database; no cut-off is given here.
# Assays:
# Escherichia coli = assay: Phototoxicity against Escherichia coli B; format: functional, organism-based
# Cyberlindnera jadinii = assay: Phototoxicity against Candida utilis; format: functional, organism-based
# [1] = Increase in ovicidal activity against Drosophila melanogaster egg incubated in dark by paper disk method; format: ADME
# Saccharomyces cerevisiae = assay: Phototoxicity against Saccharomyces cerevisiae; format: functional, organism-based
# [2] = Photoovicidal activity against Drosophila melanogaster egg pretreated 1 hr before UV light irradiation for 45 mins by paper disk method; format: ADME; details: 0.75 h
# [3] = Ovicidal activity against Drosophila melanogaster egg by paper disk method; format: ADME
# Aedes aegypti = assay: Phototoxicity against Aedes aegypti larvae; format: functional, organism-based
# Drosophila melanogaster = assay: Phototoxicity against Drosophila melanogaster larvae; format: functional, organism-based
# [4] = Ratio of ID50 for Drosophila melanogaster egg to ID50 for Drosophila melanogaster egg irradiated with UV light for 45 mins; format: ADME
Compound,Activity (Escherichia coli),Activity (Cyberlindnera jadinii),Activity [1],Activity (Saccharomyces cerevisiae),LD50 [2],LD50 [3],Activity (Aedes aegypti),Activity (Drosophila melanogaster),selectivity ratio at 0.75 h [4]
CC#Cc1ccc(-c2ccccc2)s1,Active,Active,Not Active,Active,0.013 microg/cm2,2.9 microg/cm2,Active,Active,225
O=c1ccc2ccccc2o1 [COUMARIN],–,–,–,–,–,23 microg/cm2,–,–,–
C#Cc1ccc(-c2ccccc2)s1,Active,Active,Not Active,Active,0.025 microg/cm2,4.6 microg/cm2,Active,Active,200
